One molecule from US20140178305A1, “IDENTIFICATION AND USE OF ANXIOLYTIC COMPOUNDS” (CALIFORNIA INSTITUTE OF TECHNOLOGY, priority 2012, published 2014) can be followed below.

Holding throughout (type): in vivo, mouse
Assay [1] has as its system MRGPRD+ neurons (hM3DREADD). In words: Conditioned place preference (CPP) assay, biased design, pharmacogenetic activation with CNO. The conditions noted are these: MrgprD-Cre/hM3DREADD mice conditioned with CNO, n=8. Here is the method: (§1) For behavioral experiments, juvenile (1-month-old) mice neonatally injected with Cre-dependent AAV8 viruses expressing hM3DREADD were subjected to a conditioned place preference assay (CPP13) using a biased design, by an investigator blind to genotype. All mice were tested for their initial chamber preference before conditioning, as depicted in FIG. 4C, lower panel).
(§2) The conditioned place preference (CPP) protocol was based on previous studies. For testing a positive valence effect of activation of MrgprB4^+ neurons, a biased compartment assignment procedure in which activation of the neurons is tested for its ability was used to increase the time spent in the initially non-preferred chamber. The CPP apparatus consisted of a rectangular chamber divided into three compartments (300×150×150 mm per compartment), connected via an opening (50×50 mm) in each delimiting wall. The two side (test) compartments were designed to have different visual and tactile cues, by having distinct walls (horizontal or vertical alternating white and black stripes) and distinct floors (different shapes of floor grids with big or small square holes). In addition a 1-inch-diameter polyvinylchloride (PVC) pipe coupler (two schedule 40 wall thickness), either threaded or smooth, was placed in the centre of each side compartment to enrich for tactile cues. The centre compartment was a neutral plastic enclosure (see FIG. 4B). This design was chosen so as to promote a compartment preference assignment for each mouse. A video tracking system (Noldus Ethovision) recorded all animal movements.
(§3) Because our hypothesis is based on the social reward mediated by social contact in juvenile mice, the mice used were approximately 1-month old. After weaning the mice were maintained in social groups and left undisturbed until the start of the CPP assay. The paradigm was completed in 6 days. On the day before pre-testing the mice were socially isolated in their home cage. On day 1 of the procedure each mouse was placed in the central compartment and allowed to explore the entire apparatus freely for 30 min (pre-test). After the pre-test the initial preference of each mouse for a given side compartment was recorded. […] Conditioning was initiated on day 2 and encompassed four sessions performed on four consecutive days. In the first conditioning session mice were injected i.p. with CNO (5 mg kg) (or saline of an equivalent volume for some control mice) and placed for 1 h (based on the observation that CNO effects peak between 45 and 50 min after administration) in the initially non-preferred (I.N.P.) compartment. On day 3, during the second conditioning session, all mice were injected with saline and confined for 1 hr in the opposite (that is, initially preferred, I.P.) compartment. (The second conditioning session was performed the following day as CNO effects last for 9 hrs.) On day 4 and day 5 the first and second conditioning sessions were repeated, respectively. The time between the i.p. injections of CNO or saline and the placement of the mice in the compartment was between 5-10 min, which is compatible with the time that is needed for CNO to start having an effect. On day 6, the mice were tested for their side compartment preference by placing them in the centre compartment and allowing them to explore the entire apparatus freely for 30 min (post test). All sessions were conducted blind to the genotype/injected virus of each mouse. For the conditioned place aversion (CPA assay) the mice remained group-housed until the day before the pre-test. After the pre-test, on the first day of the conditioning session the mice were injected with saline and confined in the I.N.P. compartment. On the second day of conditioning the mice were injected with CNO (except for the saline control mice) and placed in the I.P. compartment. On the third and fourth day of conditioning the first and second sessions of conditioning were repeated, respectively. […]

In assay [2] the test system is MRGPRB4+ neurons (hM3DREADD). The assay is described as above. Here is the method:
as §1, §2, §3

For assay [3], the system named is MRGPRB4+ spinal afferent fibres co-expressing GCaMP3.0 and hM3DREADD. In words: Calcium imaging after spinal application of CNO in MrgprB4+ fibres expressing hM3DREADD and GCaMP3.0. As to conditions: CNO 1.5 mM, mice co-injected with GCaMP3.0 and hM3DREADD viruses. As for the experimental part: KCl, final concentration (60 mM), α,β-methyl ATP (5 mM) and CNO (1.5 mM) were delivered manually to the imaging bath using a pipetman pipette.
The stimuli used to activate MRGPRB41 fibres were designed to mimic stroking and allogrooming stimuli. […] To determine whether direct activation of MRGPRB41 neurons could similarly promote a preference for the location in which this stimulation occurred, a pharmacogenetic strategy was used. Juvenile (1-month-old) Mrgprb4-cre male mice were injected neonatally with an AAV encoding the hM3-(Gq-coupled)DREADD19, the activation of which by clozapine-N-oxide (CNO) causes membrane depolarization (FIG. 4a).
Spinal application of CNO was employed to image activation of hM3DREADD and GCaMP3.0-expressing MrgprB4^+ fibers. The low probability of double-infection of individual MrgprB4^+ neurons with both the GCaMP3.0 and hM3DREADD Cre-dependent viruses (˜30%), taken together with the difficulty of identifying sites for focal peripheral injection corresponding to specific MrgprB4^+ central afferent fibers visualized in the spinal cord, precluded peripheral delivery of CNO for this assay.

“Also recorded” adds a separate entry of the source.

With `C[N+]1([O-])CCN(C2=Nc3cc(Cl)ccc3Nc3ccccc32)CC1` [CNO, Clozapine-N-oxide], in assay [1], the “conditioned place preference (CPP)” value was “neither CPP”. In addition, the “difference of means of difference scores, experimental versus pooled controls” value in assay [2] (95% confidence interval 62.9-339.3, Cohen's d=0.872) is recorded as 201±70. Moreover, the “difference score (time after conditioning minus before conditioning), saline-paired chamber” value in assay [2] (MrgprB4::hM3DREADD mice, n=15) is -340 ± 74 s. Further, the “difference score (time after conditioning minus before conditioning), CNO-paired (I.N.P.) chamber” value in assay [2] (MrgprB4::hM3DREADD mice, n=15, p<0.01) was 253 ± 66 s. In assay [2] (Mrgprb4-hM3DREADD mice, CNO 5 mg/kg i.p., pre- versus post-training, n=15, P<0.01), the “increase in the time spent in the I.N.P. chamber paired with CNO exposure” value came out at 190±95%. The “change in the difference score for the I.N.P. chamber” value in assay [2] (control mice expressing hrGFP in MrgprB4+ (n=9) or MrgprD+ (n=10) neurons, conditioned with CNO) is given as “No significant change”. Moreover, the “mean difference score of the experimental animals in the I.N.P. chamber” value in assay [2] (experimental group (FIG. 4e, j)) is recorded as 253±65.8. The “increase in preference score for the I.N.P. chamber (time in CNO/I.N.P. chamber divided by total time in the two test chambers)” value in assay [2] (experimental group, pre vs. post, p<0.001) is given as 195±86%. For the same molecule, in assay [3], the “calcium transients after application to the spinal cord” value is reported as “able to induce calcium transients; also recorded: robust calcium transients”.
